Experimental data published in ChEMBL document CHEMBL1143375 (Bioorg Med Chem Lett, 2009).

Tests used:
[1] = Inhibition of potato LOX5; parameters: species or system Solanum tuberosum
[2] = molecular target: T1, Prostaglandin G/H synthase 1 (Ovis aries, UniProt P05979)
T1 sequence (P05979 whole entry): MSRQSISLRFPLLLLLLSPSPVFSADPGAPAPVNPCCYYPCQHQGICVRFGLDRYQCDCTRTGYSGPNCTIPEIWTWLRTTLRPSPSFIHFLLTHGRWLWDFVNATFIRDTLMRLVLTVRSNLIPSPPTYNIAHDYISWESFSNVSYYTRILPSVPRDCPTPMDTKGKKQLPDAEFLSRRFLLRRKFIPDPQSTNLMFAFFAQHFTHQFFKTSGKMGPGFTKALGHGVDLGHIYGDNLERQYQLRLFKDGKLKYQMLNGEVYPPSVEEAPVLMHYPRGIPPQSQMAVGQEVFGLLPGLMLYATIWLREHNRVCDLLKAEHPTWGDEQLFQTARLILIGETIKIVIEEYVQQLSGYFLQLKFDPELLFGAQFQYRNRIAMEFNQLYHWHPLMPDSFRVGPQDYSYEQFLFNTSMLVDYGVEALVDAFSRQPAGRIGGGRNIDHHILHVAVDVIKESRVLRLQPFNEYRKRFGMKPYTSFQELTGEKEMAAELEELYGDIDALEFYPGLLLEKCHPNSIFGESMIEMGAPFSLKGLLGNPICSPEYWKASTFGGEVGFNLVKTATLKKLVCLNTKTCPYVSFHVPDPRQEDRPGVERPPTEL
Description: Inhibition of ovine COX1 by enzyme immuno assay

Rattus norvegicus = assay: Antiinflammatory activity in orally dosed rat assessed as inhibition of carrageenan-induced paw edema after 3 hrs; type: functional; settings: po
[3] = molecular target: T2, Prostaglandin G/H synthase 2 (Homo sapiens, UniProt P35354); assay: Inhibition of human recombinant COX2 by enzyme immuno assay
T2 sequence (P35354 whole entry): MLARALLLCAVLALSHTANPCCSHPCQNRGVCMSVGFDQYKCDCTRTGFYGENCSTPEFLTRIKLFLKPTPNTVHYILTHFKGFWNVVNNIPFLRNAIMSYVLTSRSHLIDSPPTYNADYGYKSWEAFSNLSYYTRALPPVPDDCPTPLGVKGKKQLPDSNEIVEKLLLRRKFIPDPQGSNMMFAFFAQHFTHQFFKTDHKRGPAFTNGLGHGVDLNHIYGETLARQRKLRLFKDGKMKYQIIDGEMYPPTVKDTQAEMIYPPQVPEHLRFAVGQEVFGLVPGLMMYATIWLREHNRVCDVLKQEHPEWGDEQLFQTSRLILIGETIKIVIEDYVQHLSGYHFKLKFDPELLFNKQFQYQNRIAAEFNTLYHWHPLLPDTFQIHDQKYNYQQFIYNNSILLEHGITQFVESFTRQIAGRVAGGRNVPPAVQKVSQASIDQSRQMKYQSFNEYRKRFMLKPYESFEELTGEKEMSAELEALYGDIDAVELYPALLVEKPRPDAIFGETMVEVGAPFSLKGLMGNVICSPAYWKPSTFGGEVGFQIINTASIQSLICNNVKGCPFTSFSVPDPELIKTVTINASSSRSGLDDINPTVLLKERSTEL

Structure (SMILES)	IC50 [1] [µM]	IC50 [2] [µM]	IC50 [3] [µM]	ED50 (Rattus norvegicus) [mg/kg]
O=C(O)/C=C/c1ccc(O)c(O)c1 [CAFFEIC ACID]	4			
CC(C)Cc1ccc(C(C)C(=O)O)cc1 (centres undefined) [IBUPROFEN]				67.4
CC(=O)Oc1ccccc1C(=O)O [ASPIRIN]				129
NS(=O)(=O)c1ccc(C#Cc2ccc(=O)n(C(F)F)c2)cc1	3.5	5.2	6	86.5

The remaining compounds from weak to strong by IC50 [1], led by results:

IC50 [1] [µM]	IC50 [2] [µM]	IC50 [3] [µM]	Structure (SMILES)	ED50 (Rattus norvegicus) [mg/kg]
3.4	> 100	9.4	CS(=O)(=O)c1ccccc1C#Cc1ccc(=O)n(C(F)F)c1	> 100
3.3	14.1	5.1	CS(=O)(=O)c1ccc(C#Cc2ccc(=O)n(C(F)F)c2)cc1	68.5
3.2	32.4	3.7	CS(=O)(=O)c1cccc(C#Cc2ccc(=O)n(C(F)F)c2)c1	66.1
